Data set [1] concerns the target HDHD1 (Homo sapiens, UniProt Q08623). The data set is described as follows: in vitro competition assay, dephosphorylation. Format: biochemical. To be noted: competition with UMP.
The target in data set [2] is PhoA (Escherichia coli, UniProt P00634). The data set is described as follows: HPLC, dephosphorylation in cascade. Format: biochemical. To be noted: 50 mM Tris-HCl pH 8.0, 1 mM MgCl2, 30 °C.
The target of data set [3] is T1, CodA (Escherichia coli, UniProt P25524).
T1 sequence (P25524 2-427): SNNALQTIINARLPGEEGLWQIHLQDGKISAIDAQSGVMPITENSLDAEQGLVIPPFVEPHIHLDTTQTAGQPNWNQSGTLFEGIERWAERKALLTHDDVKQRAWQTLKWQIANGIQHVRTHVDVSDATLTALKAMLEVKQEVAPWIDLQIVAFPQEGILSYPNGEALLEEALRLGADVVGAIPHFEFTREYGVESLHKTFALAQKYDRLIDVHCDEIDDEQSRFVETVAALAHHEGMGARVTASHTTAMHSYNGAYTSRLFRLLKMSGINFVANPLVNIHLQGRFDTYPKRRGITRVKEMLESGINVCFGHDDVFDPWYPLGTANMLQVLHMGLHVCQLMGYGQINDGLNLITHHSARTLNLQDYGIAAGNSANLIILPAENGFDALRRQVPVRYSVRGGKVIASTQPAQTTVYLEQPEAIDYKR
The data set is described as follows: HPLC, deamination in cascade. In kind it is biochemical. Conditions: 50 mM Tris-HCl pH 8.0, 1 mM MgCl2, 30 °C.

Data set [4] addresses T2, SgGouE (Streptomyces graminearus, UniProt K4HPM3).
T2 sequence (K4HPM3 1-246): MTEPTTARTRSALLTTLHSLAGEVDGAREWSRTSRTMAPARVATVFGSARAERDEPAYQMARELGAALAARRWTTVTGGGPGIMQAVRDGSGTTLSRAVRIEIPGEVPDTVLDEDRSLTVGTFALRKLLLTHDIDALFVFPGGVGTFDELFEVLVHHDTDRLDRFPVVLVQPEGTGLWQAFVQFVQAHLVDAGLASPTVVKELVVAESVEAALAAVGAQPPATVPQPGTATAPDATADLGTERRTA
In words: HPLC turnover assay. Format: biochemical.

The target of data set [5] is T2, SgGouE. The data set is described as follows: HPLC turnover assay. Format: biochemical. To be noted: 50 mM Tris-HCl pH 8.0, 1 mM CMP, 1 mM MgCl2, 30 °C (cascade).
Substrate in data set [6]: O=c1ccn([C@@H]2O[C@H](COP(=O)(O)O)[C@@H](O)[C@H]2O)c(=O)[nH]1
In words: kinetic analysis of UMP hydrolysis. In kind it is biochemical, Neisseria meningitidis.

For orientation: Km means the concentration of substrate that gives half-maximal velocity. A word on the kcat: it is the maximal rate divided by the concentration of active sites.

Sequence of PhoA (P00634 22-471): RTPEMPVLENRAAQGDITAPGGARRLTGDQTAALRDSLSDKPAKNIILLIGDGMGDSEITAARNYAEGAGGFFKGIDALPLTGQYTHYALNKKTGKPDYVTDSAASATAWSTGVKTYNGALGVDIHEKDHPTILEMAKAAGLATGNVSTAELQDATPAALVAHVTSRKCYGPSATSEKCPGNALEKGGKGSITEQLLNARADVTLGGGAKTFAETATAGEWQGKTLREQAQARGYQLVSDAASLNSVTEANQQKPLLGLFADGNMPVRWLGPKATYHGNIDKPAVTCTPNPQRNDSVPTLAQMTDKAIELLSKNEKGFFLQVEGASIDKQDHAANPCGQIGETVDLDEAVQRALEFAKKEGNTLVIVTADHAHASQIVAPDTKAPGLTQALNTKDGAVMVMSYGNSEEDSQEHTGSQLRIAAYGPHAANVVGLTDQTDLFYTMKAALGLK
Sequence of HDHD1 (Q08623 whole entry): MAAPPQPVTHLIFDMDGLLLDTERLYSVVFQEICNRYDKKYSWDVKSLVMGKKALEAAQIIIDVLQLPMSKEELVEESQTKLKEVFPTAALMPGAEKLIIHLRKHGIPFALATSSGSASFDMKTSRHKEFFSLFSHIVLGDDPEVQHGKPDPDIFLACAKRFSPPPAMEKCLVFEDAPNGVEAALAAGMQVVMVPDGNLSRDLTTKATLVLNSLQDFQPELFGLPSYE

`O=c1[nH]cc([C@@H]2O[C@H](COP(=O)(O)O)[C@@H](O)[C@H]2O)c(=O)[nH]1` [ΨMP]: the “in vitro competition assay, dephosphorylation” value in data set [1] was “HDHD1 has prominent specificity and activity against the latter substrate”. In data set [2], the “HPLC, dephosphorylation in cascade” value is listed as “the phosphatase PhoA was utilized for the dephosphorylation of ΨMP for related assays”. As for `Nc1cc[nH]c(=O)n1` [cytosine], the “HPLC, deamination in cascade” value in data set [3] is on record as “cytosine can be easily deaminated by CodA (deaminase)”.

With `O=c1ccn([C@@H]2O[C@H](COP(=O)(O)O)[C@@H](O)[C@H]2O)c(=O)[nH]1` [UMP], the relative efficiency in data set [4] amounted to 50%. Consider `Nc1ccn([C@@H]2O[C@H](COP(=O)(O)O)[C@@H](O)[C@H]2O)c(=O)n1` [CMP], for which the HPLC turnover assay result in data set [5] is “we found that SgGouE indicates the most superior performance”.

B1: NmYgdH (Neisseria meningitidis MC58) (protein)
chain: MENTNRVPEQARYDAERRQADEALAGVFPAVSIFGSARTPQNHADYAFACRLARRLSDSGIAVISGGGPGIMEAANKGAFAGKSVSVGLNIVLPHEQKPNPYQDIALRFSRFAERKAVFFRYSQAYVVMPGGFGTLDELFEILTLVQTGKVPPRPIVLVGKAFWSGLAEWINAQLLARGLISEGAVSLFAISDDEDEIVAYLSEHGLQTA
B1: in data set [6], the Km was found to be 11.78 ± 0.81 mM and the kcat came out at 81.90 ± 2.60 s⁻¹.

The values are drawn from article PMC12500856 (Nature Communications, 2025).
